Assay results as given in patent publication US12661410B2, “Compounds for targeted degradation of RET” (C4 Therapeutics, Inc., priority 2020, dated 2026).
Where a chain is given by its changes, count along the chain named. Read-outs that look alike come from different tables or passages of the source.

Key:
[1] = molecular target: T1, RET(KD: 658-1114 G810R) (Homo sapiens, UniProt P07949, G810R); assay: HiBiT-Degradation, RET G810R degradation assay (Nano-Glo HiBiT Lytic), 293T.165 cells; assay type: cell-based; conditions: for Emax / DC50: 6.0 hours; for Emax: % remaining protein, read-out: 293T.165 RET(KD: 658-1114 G810R) 6.0 hours (Emax); for DC50: read-out: 293T.165 RET(KD: 658-1114 G810R) 6.0 hours (DC50)
T1 construct: 658-1114; expressed in transfected cells; host or cells: 293T.165 (293T cells, generated in-house)
T1 sequence (P07949 658-1114 G810R): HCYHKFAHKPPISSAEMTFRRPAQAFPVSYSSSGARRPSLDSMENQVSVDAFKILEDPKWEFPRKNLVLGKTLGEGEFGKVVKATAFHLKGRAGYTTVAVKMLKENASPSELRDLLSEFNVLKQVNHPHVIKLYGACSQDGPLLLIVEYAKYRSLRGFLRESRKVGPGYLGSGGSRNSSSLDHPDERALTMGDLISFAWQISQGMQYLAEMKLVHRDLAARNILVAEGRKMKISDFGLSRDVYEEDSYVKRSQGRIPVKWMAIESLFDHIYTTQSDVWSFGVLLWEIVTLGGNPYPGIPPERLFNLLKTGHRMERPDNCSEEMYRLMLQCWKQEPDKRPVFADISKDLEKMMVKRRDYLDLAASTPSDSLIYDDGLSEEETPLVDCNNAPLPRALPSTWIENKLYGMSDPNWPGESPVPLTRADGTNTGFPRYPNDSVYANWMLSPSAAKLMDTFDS
Method in brief: (§1)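 HEK293T lines stably expressing HiBiT-tagged RET kinase domain (WT: 293T.144; G810R: 293T.165) were treated with degraders for 6 h in duplicate, 11-point half-log series from 10 μM top dose. Lysis with Nano-Glo HiBiT Lytic reagent, luminescence read; DC50 and Emax (% remaining protein) derived from dose-response curves.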

[2] = molecular target: T2, RET (658-1114) (Homo sapiens, UniProt P07949); assay: HiBiT-Degradation, RET wild-type degradation assay (Nano-Glo HiBiT Lytic), 293T.144 cells; assay type: cell-based; conditions: for DC50 / Emax: 6.0 hours; for DC50: read-out: 293T.144 RET (658-1114) 6.0 hours (DC50); for Emax: read-out: 293T.144 RET (658-1114) 6.0 hours (Emax)
T2 construct: 658-1114; expressed in transfected cells; host or cells: 293T.144 (293T cells, generated in-house)
T2 sequence (P07949 658-1114): T1 sequence (P07949 658-1114 G810R) with R153G
Method in brief: as §1

[3] = half-maximal degradation concentration

Structure (SMILES) | Emax [1] [%] | DC50 [1, 3] [nM] | 293T.165 RET(KD: 658-1114 G810R) 6.0 hours (Emax) ([1]; HiBiT-Degradation) | 293T.165 RET(KD: 658-1114 G810R) 6.0 hours (IP) [nM] ([1]; HiBiT-Degradation) | DC50 ([1]; HiBiT-Degradation) [nM] | 293T.144 RET (658-1114) 6.0 hours (IP) [nM] ([2]; HiBiT-Degradation) | DC50 ([2]; HiBiT-Degradation) [nM] | Emax ([2]; HiBiT-Degradation) [%] | 293T.165 RET(KD: 658-1114 G810R) 6.0 hours (IP) [nM] [1] | 293T.144 RET (658-1114) 6.0 hours (IP) [nM] [2] | Emax ([2]; % remaining protein) [%] | DC50 [2, 3] [nM]
CCC1(C(=O)NC(C)C)CCN(c2ncc(-c3cc(-c4cnn(C5CCN(C(=O)CN6CCC(c7ccc(NC8CCC(=O)NC8=O)cc7F)CC6)CC5)c4)cn4ncc(C#N)c34)cn2)CC1 (stereo not shown) [Compound 59, 1-[5-[3-cyano-6-[1-[1-[2-[4-[4-[(2,6-dioxo-3-piperidyl)amino]-2-fluoro-phenyl]-1-piperidyl]acetyl]-4-piperidyl]pyrazol-4-yl]pyrazolo[1,5-a]pyridin-4-yl]pyrimidin-2-yl]-4-ethyl-N-isopropyl-piperidine-4-carboxamide] | < 50 | < 100 | +++ (<50% = +++) | ++++ (< 50 nM = ++++) | < 100 | ++++ (< 50 nM = ++++) | < 50 | < 30 | – | – | – | –
CCC1(C(=O)NC(C)C)CCN(c2ccc(-c3cc(-c4cnn([C@H]5CC[C@H](N6CCC(c7ccc(N[C@@H]8CCC(=O)NC8=O)cc7F)CC6)CC5)c4)cn4ncc(C#N)c34)cn2)CC1 (single isomer, unassigned) [Compound 195] | < 30 | < 50 | – | – | – | – | – | – | ++++ (<50 nM = ++++) | ++++ (<50 nM = ++++) | < 30 | < 50
N#Cc1cnn2cc(-c3cnn(C4CCN(C(=O)CC5(O)CCN(c6ccc(NC7CCC(=O)NC7=O)cc6F)CC5)CC4)c3)cc(-c3ccc(N4CCC(c5ccc(O)cc5)CC4)nc3)c12 (stereo not shown) [Compound 197, 6-[1-[1-[2-[1-[4-[(2,6-dioxo-3-piperidyl)amino]-2-fluoro-phenyl]-4-hydroxy-4-piperidyl]acetyl]-4-piperidyl]pyrazol-4-yl]-4-[6-[4-(4-hydroxyphenyl)-1-piperidyl]-3-pyridyl]pyrazolo[1,5-a]pyridine-3-carbonitrile] | < 30 | < 50 | – | – | – | – | – | – | ++++ (<50 nM = ++++) | ++++ (<50 nM = ++++) | < 30 | < 50
CCC1(C(=O)NC(C)C)CCN(c2ccc(-c3nc(-c4cnn(C5CCC6(CC5)CN(C(=O)CC5(O)CCN(c7ccc(NC8CCC(=O)NC8=O)cc7F)CC5)C6)c4)cn4ncc(C#N)c34)cn2)CC1 (stereo not shown) [Compound 182, 1-(5-(3-Cyano-6-(1-(2-(2-(1-(4-((2,6-dioxopiperidin-3-yl)amino)-2-fluorophenyl)-4-hydroxypiperidin-4-yl)acetyl)-2-azaspiro[3.5]nonan-7-yl)-1H-pyrazol-4-yl)pyrazolo[1,5-a]pyrazin-4-yl)pyridin-2-yl)-4-ethyl-N-isopropylpiperidine-4-carboxamide] | < 50 | < 50 | – | – | – | – | – | – | ++++ (<50 nM = ++++) | ++++ (<50 nM = ++++) | < 30 | < 50
COc1ccc(CN2C3CC2CN(c2ccc(-c4nc(-c5cnn([C@H]6CC[C@H](N7CCN(c8cc(OC)c(NC9CCC(=O)NC9=O)cc8F)CC7)CC6)c5)cn5ncc(C#N)c45)cn2)C3)cn1 (relative stereo) [Compound 167, 6-[1-[4-[4-[4-[(2,6-dioxo-3-piperidyl)amino]-2-fluoro-5-methoxy-phenyl]piperazin-1-yl]cyclohexyl]pyrazol-4-yl]-4-[6-[6-[(6-methoxy-3-pyridyl)methyl]-3,6-diazabicyclo[3.1.1]heptan-3-yl]-3-pyridyl]pyrazolo[1,5-a]pyrazine-3-carbonitrile] | < 30 | < 50 | – | – | – | – | – | – | ++++ (<50 nM = ++++) | ++++ (<50 nM = ++++) | < 30 | < 50
CCC1(C(=O)NC2CCC2)CCN(c2ccc(-c3nc(-c4cnn([C@H]5C[C@H](CN6CCN(c7ccc(N[C@H]8CCC(=O)NC8=O)cc7F)CC6)C5)c4)cn4ncc(C#N)c34)cn2)CC1 [Compound 188, 1-[5-[3-cyano-6-[1-[3-[[4-[4-[[(3S)-2,6-dioxo-3-piperidyl]amino]-2-fluoro-phenyl]piperazin-1-yl]methyl]cyclobutyl]pyrazol-4-yl]pyrazolo[1,5-a]pyrazin-4-yl]-2-pyridyl]-N-cyclobutyl-4-ethyl-piperidine-4-carboxamide] | < 50 | < 50 | – | – | – | – | – | – | ++++ (<50 nM = ++++) | ++++ (<50 nM = ++++) | < 30 | < 50
CCC1(C(=O)NC(C)C)CCN(c2ccc(-c3nc(-c4cnn(C5CCN(C(=O)CC6(O)CCN(c7cc(OC)c(NC8CCC(=O)NC8=O)cc7F)CC6)CC5)c4)cn4ncc(C#N)c34)cn2)CC1 (stereo not shown) [Compound 91, 1-[5-[3-cyano-6-[1-[1-[2-[1-[4-[(2,6-dioxo-3-piperidyl)amino]-2-fluoro-5-methoxy-phenyl]-4-hydroxy-4-piperidyl]acetyl]-4-piperidyl]pyrazol-4-yl]pyrazolo[1,5-a]pyrazin-4-yl]-2-pyridyl]-4-ethyl-N-isopropyl-piperidine-4-carboxamide] | < 30 | < 50 | – | – | – | – | – | – | ++++ (<50 nM = ++++) | ++++ (<50 nM = ++++) | < 30 | < 50
CCC1(C(=O)Nc2ccc(F)cc2)CCN(c2ccc(-c3nc(-c4cnn(C5CCN(C(=O)CC6(O)CCN(c7ccc(NC8CCC(=O)NC8=O)cc7Cl)CC6)CC5)c4)cn4ncc(C#N)c34)cn2)CC1 (stereo not shown) [Compound 100, 1-[5-[6-[1-[1-[2-[1-[2-chloro-4-[(2,6-dioxo-3-piperidyl)amino]phenyl]-4-hydroxy-4-piperidyl]acetyl]-4-piperidyl]pyrazol-4-yl]-3-cyano-pyrazolo[1,5-a]pyrazin-4-yl]-2-pyridyl]-4-ethyl-N-(4-fluorophenyl)piperidine-4-carboxamide] | < 30 | < 100 | – | – | – | – | – | – | ++++ (<50 nM = ++++) | ++++ (<50 nM = ++++) | < 30 | < 50
CCC1(C(=O)NC2CCC2)CCN(c2ccc(-c3nc(-c4cnn([C@H]5CC[C@H](N6CCC(c7ccc(N[C@H]8CCC(=O)NC8=O)cc7Cl)CC6)CC5)c4)cn4ncc(C#N)c34)cn2)CC1 (single isomer, unassigned) [Compound 130] | < 30 | < 50 | – | – | – | – | – | – | ++++ (<50 nM = ++++) | ++++ (<50 nM = ++++) | < 30 | < 50
N#Cc1cnn2cc(-c3cnn([C@H]4CC[C@H](CCN5CCC(c6ccc(NC7CCC(=O)NC7=O)cc6F)CC5)CC4)c3)cc(-c3ccc(N4CCN(C(=O)Cc5ccc(F)cn5)CC4)nc3)c12 (stereo partly shown) [Compound 57, 6-[1-[(1r,4r)-4-[2-[4-[4-[(2,6-dioxo-3-piperidyl)amino]-2-fluoro-phenyl]-1-piperidyl]ethyl]cyclohexyl]pyrazol-4-yl]-4-[6-[4-[2-(5-fluoro-2-pyridyl)acetyl]piperazin-1-yl]-3-pyridyl]pyrazolo[1,5-a]pyridine-3-carbonitrile] | < 30 | < 50 | ++++ (< 30% = ++++) | ++++ (< 50 nM = ++++) | < 50 | ++++ (< 50 nM = ++++) | < 50 | < 30 | – | – | – | –
